Data as given in US20260272899A1 (Bayer Aktiengesellschaft, priority 2024, published 2026).

## CCOc1ncc(C)c2c1[C@H](c1ccc(C#N)cc1OC)C(C(N)=O)=C(C)N2 [finerenone, (4S)-4-(4-cyano-2-methoxyphenyl)-5-ethoxy-2,8-dimethyl-1,4-dihydro-1,6-naphthyridine-3-carboxamide]
AE of death or leading to death by preferred term, finerenone n = 2,993
  Sudden death, number of subjects: 20
No SGLT2i use at baseline, column headed Finerenone n = 2,610
  All-cause death, Rate (per 100 py): 7.0 per 100 py
Finerenone N = 3,003
  Total worsening heart failure events and death from cardiovascular causes: Rate per 100 patient-yr: 14.9 per 100 patient-yr
